Assay [1] deals with MCF7. Put plainly: Cytotoxicity against human MCF7 cells by MTT assay. Type of assay: functional. The note with it: for EC50: read-out: ED50 (the source's name). Background: Formazan colour is commonly taken as a measure of viable cells.
The test system of assay [2] is HT-29. Put plainly: Cytotoxicity against human HT-29 cells by MTT assay. In kind it is functional. The settings on record: for EC50: read-out: ED50 (the source's name).
The test system of assay [3] is Hep 3B2. As to the kind of experiment: (§1) Cytotoxicity against human Hep3B cells by MTT assay. Type of assay: functional.
In assay [4] the test system is A549. Put plainly: Cytotoxicity against human A549 cells by MTT assay. The note with it: for EC50: read-out: ED50 (the source's name). Type of assay: functional.
Assay [5] is described as follows: as §1. Type of assay: functional, Hep 3B2. The note with it: read-out: ED50 (the source's name).

≈ marks a conversion by molar mass, not a printed value. Calls of active or inactive are those of the source. No cut-off for these calls is given here.

Turning to `COc1cc(O)c(-c2oc3c(CC=C(C)C)c(O)cc(O)c3c(=O)c2C(O)C=C(C)C)cc1O` (stereo not given), the outcome in assay [1], in assay [2], in assay [3] and in assay [4] was inactive.

On to `O=c1[nH]cc(F)c(=O)[nH]1` [FLUOROURACIL], for which the EC50 in assay [1] stood at 0.2 µg/mL (≈ 1.54 µM); in assay [2] it was 0.2 µg/mL (≈ 1.54 µM); in assay [5], 0.6 µg/mL (≈ 4.61 µM); in assay [4], 0.4 µg/mL (≈ 3.08 µM).

As to `C=C(C)C1Cc2c(oc3c(CC=C(C)C)c4c(c(O)c3c2=O)C=CC(C)(C)O4)-c2c(O)cc(O)c(O)c21` (stereo not given), the outcome in assay [1], in assay [2], in assay [3] and in assay [4] was inactive.

Take `COc1cc(O)c2c3c1-c1oc4c(/C=C(\O)C(C)(C)O)c(O)cc(O)c4c(=O)c1C[C@@H]3C(C)(C)O2`: the outcome in assay [1], in assay [2], in assay [3] and in assay [4] was inactive.

With `C=C(C)C1Cc2c(oc3cc(O)cc(O)c3c2=O)-c2c(O)c3c(c(O)c21)OC(C)(C)C=C3` (stereo not given) [ARTELASTOXANTHONE], the EC50 in assay [1] came to 3.1 µg/mL (≈ 7.14 µM); in assay [2], 3.9 µg/mL (≈ 8.98 µM); in assay [5], 3.2 µg/mL (≈ 7.37 µM); in assay [4], 10 µg/mL (≈ 23 µM).

Turning to `CC(=O)C1c2oc3c4c(cc(O)c3c(=O)c2CC2C1C(=O)OC2(C)C)OC(C)(C)C=C4` (stereo not given), the outcome in assay [1], in assay [2], in assay [3] and in assay [4] was inactive.

Regarding `CC(C)=CCC/C(C)=C/Cc1c2c(c3oc4c(c(=O)c3c1O)CC1c3c(c(O)cc(O)c3-4)OC1(C)C)C=CC(C)(C)O2` (stereo not given), the outcome in assay [1], in assay [2], in assay [3] and in assay [4] was inactive.

As for `CC(C)=CCc1c2c(c(O)c3c(=O)c(C(O)C=C(C)C)c(-c4cc(O)c(O)cc4O)oc13)C=CC(C)(C)O2` (stereo not given), the result in assay [1], in assay [2], in assay [3] and in assay [4] was inactive.

With `CC1(C)C=Cc2c(cc(O)c3c(=O)c4c(oc23)-c2c(O)cc(O)c3c2C(C4)C(C)(C)O3)O1` (stereo not given), the result in assay [1], in assay [2], in assay [3] and in assay [4] was inactive.

In the case of `C=C(C)C1CC(=O)c2oc3c4c(cc(O)c3c(=O)c2C1)OC(C)(C)C=C4` (stereo not given) [ARTONOL A], the EC50 in assay [1] stood at 2.7 µg/mL (≈ 7.66 µM); in assay [2], 3.1 µg/mL (≈ 8.8 µM); in assay [5] it was 21.9 µg/mL (≈ 62.1 µM); in assay [4], 1.1 µg/mL (≈ 3.12 µM).

These data come from ChEMBL document CHEMBL1158840, “Cytotoxic prenylflavonoids from Artocarpus elasticus” (2005).
